Marks after values point to notes of the source that are not given here.
How the values were obtained:
[1] = tested on: HIV-1 virus strain RF in CEM-SS cells; assay: HIV-1 cytopathicity assay; type: cell-based; settings: HIV-1RF
[2] = molecular target: RNase H-deficient p66^EQ/p51 HIV-1 RT (Human immunodeficiency virus type 1 group M subtype B, UniProt P04585, E1065Q); assay: DNA-dependent DNA polymerase assay, RNase H mutant p66^E478Q/p51; type: biochemical; settings: inhibitor 20 µM
[3] = molecular target: RNase H-deficient p66^DA/p51 HIV-1 RT (Human immunodeficiency virus type 1 group M subtype B, UniProt P04585, D1136A); assay: DNA-dependent DNA polymerase assay, RNase H mutant p66^D549A/p51; type: biochemical; settings: inhibitor 20 µM

Row | Compound | protection against the cytopathic effect of HIV (in words) [1] | other results
1 | 2,7-dihydroxy-4-isopropyl-cyclohepta-2,4,6-triene [β-Thujaplicinol, reference compound] | no protection against the cytopathic effect of HIV | 
2 | Cc1cc(O)c(=O)c(O)c2c1C[C@@H](C(C)(O)CN1CCCCC1)CC2 (mixture of isomers) [Compound 1, 5,7-Dihydroxy-2-(1-hydroxy-1-methyl-2-piperidin-1-yl-ethyl)-9-methyl-1,2,3,4-tetrahydro benzocyclohepten-6-one] | protection against the cytopathicity of the virus | In vitro therapeutic index (CC50/EC50) [1]: 4.9
3 | Cc1cc(O)c(=O)c(O)c2c1C[C@@H](C(C)(O)Cn1ccnc1)CC2 (mixture of isomers) [Compound 2, 5,7-Dihydroxy-2-(1-hydroxy-2-imadazol-1-yl-1-methyl-ethyl)-9-methyl-1,2,3,4-tetrahydro benzocyclohepten-6-one] | protection against the cytopathicity of the virus | 
4 | CCN(CC)CC(C)(O)[C@H]1CCc2c(c(C)cc(O)c(=O)c2O)C1 (mixture of isomers) [Compound 3, 2-(2-Diethylamino-1-hydroxy-1-methyl-ethyl)-5,7-dihydroxy-9-methyl-1,2,3,4-tetrahydrobenzocyclohepten-6-one] | slight protection against cytopathicity | Viral Replication EC50 column, protective effect class ([1]; highest concentration 50 µM): < 50% ^c
5 | Cc1cc(O)c(=O)c(O)c2c1C[C@@H](C(C)(O)CNCc1ccccc1F)CC2 (mixture of isomers) [Compound 4, 2-[2-(2-Fluoro-benzylamino)-1-hydroxy-1-methyl-ethyl]-5,7-dihydroxy-9-methyl-1,2,3,4-tetrahydrobenzocyclohepten-6-one] | no protection against virus cytopathicity | 
6 | Cc1cc(O)c(=O)c(O)c2c1C[C@@H](C(C)(O)CNc1ccccc1)CC2 (mixture of isomers) [Compound 5, 5,7-Dihydroxy-2-(1-hydroxy-1-methyl-2-phenylamino-ethyl)-9-methyl-1,2,3,4-tetrahydrobenzocyclohepten-6-one] | protection against the cytopathicity of the virus | inhibition of DNA-dependent DNA polymerase activity (in words) [2]: significantly and consistently inhibited; inhibition of DNA-dependent DNA polymerase activity (in words) [3]: significantly and consistently inhibited
7 | CCSCC(C)(O)[C@H]1CCc2c(c(C)cc(O)c(=O)c2O)C1 (mixture of isomers) [Compound 6, 2-(2-Ethylsulfanyl-1-hydroxy-1-methyl-ethyl)-5,7-dihydroxy-9-methyl-1,2,3,4-tetrahydrobenzocyclohepten-6-one] | slight protection against cytopathicity | 
8 | Cc1cc(O)c(=O)c(O)c2c1C[C@@H](C(C)(O)CSc1ccccc1)CC2 (mixture of isomers) [Compound 7, 5,7-Dihydroxy-2-(1-hydroxy-1-methyl-2-phenylsulfanyl-ethyl)-9-methyl-1,2,3,4-tetrahydrobenzocyclohepten-6-one] | protection against the cytopathicity of the virus | 
9 | Cc1cc(O)c(=O)c(O)c2c1C[C@@H](C(C)(O)CSCc1ccccc1)CC2 (mixture of isomers) [Compound 8, 2-(2-Benzylsulfanyl-1-hydroxy-1-methyl-ethyl)-5,7-dihydroxy-9-methyl-1,2,3,4-tetrahydrobenzocyclohepten-6-one] | protection against the cytopathicity of the virus | 
10 | CCS(=O)(=O)CC(C)(O)[C@H]1CCc2c(c(C)cc(O)c(=O)c2O)C1 (mixture of isomers) [Compound 9, 2-(2-Ethanesulfonyl-1-hydroxy-1-methyl-ethyl)-5,7-dihydroxy-9-methyl-1,2,3,4-tetrahydrobenzocyclohepten-6-one] | slight protection against cytopathicity | 
11 | Cc1cc(O)c(=O)c(O)c2c1C[C@@H](C(C)O)CC2 (mixture of isomers) [Compound 13, 5,7-Dihydroxy-2-(1-hydroxy-ethyl)-9-methyl-1,2,3,4-tetrahydrobenzocyclohepten-6-one] | protection against the cytopathicity of the virus | 
12 | Cc1cc(O)c(=O)c(O)c2c1C[C@@H](C(C)NCc1ccccc1)CC2 (mixture of isomers) [Compound 14, 2-(1-Benzylamino-ethyl)-5,7-Dihydroxy-9-methyl-1,2,3,4-tetrahydrobenzocyclohepten-6-one] | protection against the cytopathicity of the virus | 
13 | Cc1cc(O)c(=O)c(O)c2c1CC(C(C)(O)CO)CC2 (stereo not drawn) [Compound 12, 2-(1,2-Dihydroxy-1-methyl-ethyl)-5,7-dihydroxy-9-methyl-1,2,3,4-tetrahydrobenzocyclohepten-6-one] | no protection against virus cytopathicity | 
14 | C=C(C)[C@H]1CCc2c(c(C)cc(O)c(=O)c2O)C1 [Manicol, 5,7-dihydroxy-2-isopropenyl-9-methyl-1,2,3,4-tetrahydro-benzocyclohepten-6-one, reference compound] | no protection against the cytopathic effect of HIV | 

From paper PMC3133734 (Journal of medicinal chemistry, 2011)
